Reference: ChEMBL document CHEMBL5625230, “The recent developments of camptothecin and its derivatives as potential anti-tumor agents” (Eur J Med Chem, 2023)
Values belong to the molecule of their own block, whether it stands above or below them.

Assays:
[1] = Cytotoxicity against Sf9 cells assessed as inhibition of cell growth measured after 24 hrs by MTT assay; assay type: toxicity, cell-based; settings: Spodoptera frugiperda
A549 [2] = assay: Antitumor activity against human A549 cells assessed as reduction in cell viability incubated for 72 hrs by CCK-8 assay; assay type: functional, cell-based; settings: A549, 72 h
PC-3M = assay: Cytotoxicity against human PC-3M cells assessed as reduction in cell viability measured after 72 hrs by MTS assay; assay type: functional, cell-based
A549 [3] = assay: Antiproliferative activity against human A549 cells assessed as inhibition of cell viability measured after 72 hrs by CCK-8 assay; assay type: functional, cell-based; settings: A549, 72 h
[4] = Anticancer activity against human KBV cells assessed as reduction in cell growth measured after 72 hrs by SRB assay; assay type: functional, cell-based
HT-29 = assay: Antiproliferative activity against human HT-29 cells assessed as reduction in cell viability incubated for 72 hrs by MTT assay; assay type: functional, cell-based; settings: HT-29, 72 h
HepG2 = assay: Antiproliferative activity against human HepG2 cells assessed as reduction in cell viability incubated for 72 hrs by MTT assay; assay type: functional, cell-based; settings: HepG2, 72 h
HL-60 = assay: Antiproliferative activity against human HL-60 cells assessed as reduction in cell viability incubated for 48 hrs by MTT assay; assay type: functional, cell-based; settings: HL-60, 48 h
[5] = Antitumor activity against mouse RM1 cells xenografted in C57BL/6 mouse assessed as tumor growth inhibition at 9 mg/kg, ip administered every other day for 3 times and measured on day 7 relative to control; assay type: functional; settings: RM1, 168 h, time 7 day, read-out: TGI

IC50 (A549 [2]): 18 nM
SMILES: CC[C@@]1(OC(=O)[C@@H](Cc2ccccc2)NC(=O)OC(C)(C)C)C(=O)OCc2c1cc1n(c2=O)Cc2cc3ccccc3nc2-1
IC50 (PC-3M): 88 nM

IC50 (A549 [3]): 630 nM
SMILES: CC[C@]1(O)c2cc3n(c(=O)c2CO[C@H]1F)Cc1cc2c4c(ccc2nc1-3)OCN(C1CCCCC1)C4

IC50 (A549 [3]): 630 nM
SMILES: CC[C@]1(O)c2cc3n(c(=O)c2CO[C@H]1F)Cc1cc2c4c(ccc2nc1-3)OCN(C1CC1)C4

IC50 (A549 [3]): 630 nM
SMILES: CC[C@]1(O)c2cc3n(c(=O)c2CO[C@H]1F)Cc1cc2c4c(ccc2nc1-3)OCN(C1CCCC1)C4

IC50 (HT-29): 45.1 nM
IC50 (HepG2): 165 nM
SMILES: CCCCCCCCCCCCCCCCOC(=O)[C@@]1(C)CCc2c(C)c(OC(=O)CCC(=O)O[C@]3(CC)C(=O)OCc4c3cc3n(c4=O)Cc4c-3nc3ccc(O)cc3c4CC)c(C)c(C)c2O1

IC50 (A549 [3]): 630 nM
SMILES: CC[C@]1(O)c2cc3n(c(=O)c2CO[C@H]1F)Cc1cc2c4c(ccc2nc1-3)OCN(C1CCC1)C4

IC50 (HL-60): 17700 nM
SMILES: CC[C@@]1(OCc2cn([C@@H]3c4cc5c(cc4[C@@H](c4cc(OC)c(O)c(OC)c4)[C@H]4C(=O)OC[C@@H]43)OCO5)nn2)C(=O)OCc2c1cc1n(c2=O)Cc2cc3ccccc3nc2-1

More lines, now with the values behind:

SMILES: CC[C@@]1(O)C(=O)OCc2c1cc1n(c2=O)Cc2c-1nc1ccccc1c2C(=O)NCc1ccccc1
IC50 at 24 h [1]: 2010 nM

SMILES: CCCCCNC(=O)c1c2c(nc3ccccc13)-c1cc3c(c(=O)n1C2)COC(=O)[C@]3(O)CC
IC50 at 24 h [1]: 2010 nM

SMILES: CC[C@@]1(O)C(=O)OCc2c1cc1n(c2=O)Cc2c-1nc1ccccc1c2CN1CCN(C(=S)Nc2cccc3ccccc23)CC1
IC50 [4]: 275000 nM

SMILES: CC[C@@]1(O)C(=O)OCc2c1cc1n(c2=O)Cc2c-1nc1ccccc1c2C(=O)NCc1ccc(F)cc1
IC50 at 24 h [1]: 2010 nM

SMILES: CC[C@@]1(O)C(=O)OCc2c1cc1n(c2=O)Cc2c-1nc1ccccc1c2CN1CCN(C(=S)Nc2ccccc2OC)CC1
IC50 [4]: 514000 nM

SMILES: CC[C@@]1(OC(=O)CCC(=O)O[C@@H]2O[C@@H](C)[C@H](OC(C)=O)[C@@H](OC(C)=O)[C@H]2OC(C)=O)C(=O)OCc2c1cc1n(c2=O)Cc2cc3cc4c(cc3nc2-1)OCO4
inhibition in vivo at 9 mg/kg [5]: 44.9%
